Laboratory results published in patent US7651978B2, “Selective herbicides based on a substituted phenylsulphonylaminocarbonyl-triazolinone” (Arysta LifeScience North America, LLC, priority 1998, dated 2010).
Where a name gives a salt, the structure may show the parent alone.

How the values were obtained:
Format in all cases: in vivo
Agropyron = test: Post-emergence test/greenhouse; settings: 60 g ai./ha, after three weeks
Alopecurus = test: Post-emergence test/greenhouse; settings: 504 h, after three weeks, read-out: degree of damage, Alopecurus
Avena = test: Post-emergence test/greenhouse; settings: after three weeks
Bromus = test: Post-emergence test/greenhouse; settings: 60 g ai./ha, after three weeks
Lolium = test: Post-emergence test/greenhouse; settings: 60 g ai./ha, after three weeks
Veronica = test: Post-emergence test/greenhouse; settings: 60 g ai./ha, after three weeks
Avena fatua = test: Post-emergence tests/outdoors (Example C, Canada); settings: outdoors
Experimental: (§1) Post-Emergence Tests/Outdoors In addition to the comparative compounds (B) and (D), the sodium salt of the compound of the formula (I) was tested under outdoor conditions in the main cultivation areas of summer wheat in Canada against economically important weeds. The small-plot experiments were carried out on cultivated land under agricultural use. Areas with particularly extensive weed growth were chosen preferably. The active compounds were applied across the area by the spray method, with an average droplet size. To produce a useful preparation of active compound, the active compounds were formulated as 70 WP (70% w/w water-dispersible powder) and applied with customary amounts of water. Wetting of the plants was improved by addition of a surface-active substance (SAS) in the concentrations recommended by the respective manufacturer. To assess the crop compatibility, from 1 to 8 weeks after the treatment, plant growth inhibitions or […] of the leaf area were assessed in % damage in comparison to the development of the untreated control. At different intervals after the treatment, the herbicidal activity was assessed as % reduction in comparison to the untreated control, based on the weed development. The figures denote: • 0%=no damage of the crops or no herbicidal effect, • 100%=total destruction of the crops or the weeds.

Fallopia convolvulus = test: Post-emergence tests/outdoors (Example C, Canada); settings: outdoors, 30 g of a.i./ha + SAS (Canplus 411), 70 WP, 5 tests
Experimental: as §1

Setaria viridis = test: Post-emergence tests/outdoors (Example C, Canada); settings: outdoors, 30 g of a.i./ha + SAS (Canplus 411), 70 WP, 5 tests
Experimental: as §1

Sinapis arvensis = test: Post-emergence tests/outdoors (Example C, Canada); settings: outdoors, 30 g of a.i./ha + SAS (Canplus 411), 70 WP, 5 tests
Experimental: as §1

Thlaspi arvense = test: Post-emergence tests/outdoors (Example C, Canada); settings: outdoors, 30 g of a.i./ha + SAS (Canplus 411), 70 WP, 3 tests
Experimental: as §1

COc1nn(C(=O)NS(=O)(=O)c2ccccc2OC(F)(F)F)c(=O)n1C [(I)-Na-salt, 2-(2-trifluoromethoxy-phenylsulphonylaminocarbonyl)-4-methyl-5-methoxy-2,4-dihydro-3H-1,2,4-triazol-3-one]
degree of damage, Agropyron (Agropyron): 70%
pest or weed control at 60 g/ha (Alopecurus; 60 g ai./ha): 80%
pest or weed control at 125 g/ha (Alopecurus; 125 g ai./ha): 90%
degree of damage, Avena (Avena; 60 g ai./ha): 70%
degree of damage, Avena (Avena; 125 g ai./ha): 90%
degree of damage, Bromus (Bromus): 90%
degree of damage, Lolium (Lolium): 90%
degree of damage, Veronica (Veronica): 90%
herbicidal effect (%), Avena fatua (Avena fatua; 30 g of a.i./ha + SAS (Canplus 411), 70 WP, 6 tests): 88%
activity against Avena fatua compared with comparative compounds (B) and (D), in words (Avena fatua; post-emergence): considerably stronger activity
herbicidal effect (%), Fallopia convolvulus (Fallopia convolvulus): 73%
herbicidal effect (%), Setaria viridis (Setaria viridis): 94%
herbicidal effect (%), Sinapis arvensis (Sinapis arvensis): 94%
herbicidal effect (%), Thlaspi arvense (Thlaspi arvense): 93%
